This assay deals with spontaneously hypertensive rat (SHR). Briefly: Blood pressure (tail-cuff) in spontaneously hypertensive rats after L-NAME infusion. The note with it: L-NAME 10 ml/kg/10 min for 10 min. It is filed as in vivo. The method, then:
To determine a possible mechanism underlying the decrease in blood pressure after infusion of NE/E, L-NAME (N(omega)-nitro-L-arginine methyl ester), which is a nitric oxide synthase inhibitor, was infused at a rate of 10 ml/kg/10 min for a total 10 min. After infusion of the L-NAME, blood pressure was measured via the tail-cuff method. FIG. 3 illustrates the effect of the blood pressure after infusion of L-NAME.
Nitric oxide is tonically released by the activity of the constitutive endothelial and neuronal NO synthases (NOS). Nitric oxide is vasodilatory, and tonically produced NO maintains low blood pressure. During exercise, there is an increase in norepinephrine and an increase in nitric oxide production. […] The increase in production of nitric oxide is due to an activation of nitric oxide synthase, which in turn increase the levels of nitric oxide.

The structures appear in SMILES notation.

With `COC(=O)[C@@H](N)CCCNC(=N)N[N+](=O)[O-]` [L-NAME, N(omega)-nitro-L-arginine methyl ester], the “effect on blood pressure after L-NAME infusion” value was “increase in blood pressure” (SHR treated with NE/E for 28 days) and “further decrease in the blood pressure” (SHR treated with vehicle for 28 days (controls)).
